Experimental data: article PMC7089538, “The effects of intra-stomach obestatin administration on intestinal contractility in neonatal piglets fed milk formula” (PLoS ONE, 2020)
Marks after values point to notes of the source that are not given here. Where no end group is shown, it is not given here.

How the values were obtained:
Type in all cases: in vivo, piglets (Polish Landrace x Pietrain)
[1] = tested on: duodenum; assay: Spontaneous contractility of whole-thickness preparations in organ bath after 6-day enteral obestatin; details: O15: obestatin 15 μg/kg BW intra-stomach every 8 h, 6 days; duodenal segment (Fig 2)
Experimental: (§1) Piglets' BW was recorded every morning. […] The protein concentration in the milk formula was 20%. […] The tissues were attached to isotonic transducers (Letica Scientific Instruments, Spain) under a load of 1.0 g that were coupled with a PowerLab recording system (ADInstruments, Sydney, Australia). […] The tissues were then washed and allowed to equilibrate. […] Half of randomly selected jejunal segments were pre-treated with atropine.

[2] = tested on: middle jejunum; assay: as above; details: 6 days, middle jejunum (Fig 2)
Experimental: as §1

[3] = tested on: duodenum; assay: ACh-stimulated or atropine-treated contractions; details: 6 days, duodenum strips, mean ± SEM
Experimental: as §1

[4] = tested on: middle jejunum; assay: ACh-stimulated or atropine-treated contractions; details: 6 days, middle jejunum strips, mean ± SEM; for amplitude of atropine treated contractions: atropine pretreatment (ATR^-6)
Experimental: as §1

[5] = tested on: duodenum; assay: Histology: thickness of intestinal muscularis layer; details: 6 days, H&E histometry, mean ± SEM
Experimental: (§2) Piglets' BW was recorded every morning. […] The protein concentration in the milk formula was 20%. […] Briefly, the samples were routinely embedded in paraffin and cut into 4.5 μm sections and applied to silane-treated slides. Next, the sections were immersed in xylene for dewaxing and then in descending grades of alcohol for rehydration. The segments were routinely stained using hematoxylin and eosin.

[6] = tested on: middle jejunum; assay: as above; details: 6 days, H&E histometry, mean ± SEM
Experimental: as §2

[7] = O10: obestatin 10 μg/kg BW intra-stomach every 8 h
[8] = O15: obestatin 15 μg/kg BW intra-stomach every 8 h
[9] = O2: obestatin 2 μg/kg BW intra-stomach every 8 h, ACh^-4 (10^−4 M, cumulative)
[10] = O2: obestatin 2 μg/kg BW intra-stomach every 8 h, ACh^-5 (10^−5 M, cumulative)
[11] = O2: obestatin 2 μg/kg BW intra-stomach every 8 h, ACh^-6 (10^−6 M, cumulative)
[12] = O2: obestatin 2 μg/kg BW intra-stomach every 8 h, ACh^-7 (10^−7 M, cumulative)
[13] = O2: obestatin 2 μg/kg BW intra-stomach every 8 h, ACh^-8 (10^−8 M, cumulative)
[14] = O10: obestatin 10 μg/kg BW intra-stomach every 8 h, ACh^-4 (10^−4 M, cumulative)
[15] = O10: obestatin 10 μg/kg BW intra-stomach every 8 h, ACh^-5 (10^−5 M, cumulative)
[16] = O10: obestatin 10 μg/kg BW intra-stomach every 8 h, ACh^-6 (10^−6 M, cumulative)
[17] = O10: obestatin 10 μg/kg BW intra-stomach every 8 h, ACh^-7 (10^−7 M, cumulative)
[18] = O10: obestatin 10 μg/kg BW intra-stomach every 8 h, ACh^-8 (10^−8 M, cumulative)
[19] = O10: obestatin 10 μg/kg BW intra-stomach every 8 h, ACh^-9 (10^−9 M, cumulative)
[20] = O15: obestatin 15 μg/kg BW intra-stomach every 8 h, ACh^-4 (10^−4 M, cumulative)
[21] = O15: obestatin 15 μg/kg BW intra-stomach every 8 h, ACh^-5 (10^−5 M, cumulative)
[22] = O15: obestatin 15 μg/kg BW intra-stomach every 8 h, ACh^-6 (10^−6 M, cumulative)
[23] = O15: obestatin 15 μg/kg BW intra-stomach every 8 h, ACh^-7 (10^−7 M, cumulative)
[24] = O15: obestatin 15 μg/kg BW intra-stomach every 8 h, ACh^-8 (10^−8 M, cumulative)
[25] = O15: obestatin 15 μg/kg BW intra-stomach every 8 h, ACh^-9 (10^−9 M, cumulative)
[26] = O2: obestatin 2 μg/kg BW intra-stomach every 8 h

FNAPFDVGIKLSGAQYQQHGRAL-NH2 [obestatin]
amplitude of spontaneous contractions compared to C [1]: significantly higher | amplitude of spontaneous contractions compared to C [2, 7]: significant increase in the amplitude of contractions was observed in C piglets in comparison to O10 and O15 groups | amplitude of spontaneous contractions compared to C [2, 8]: significant increase in the amplitude of contractions was observed in C piglets in comparison to O10 and O15 groups | amplitude of ACh stimulated contractions [3, 9]: 14.1 ± 1.2^a^b mm | amplitude of ACh stimulated contractions [3, 10]: 11.2 ± 0.7 mm | amplitude of ACh stimulated contractions [3, 11]: 7.4 ± 0.9 mm | amplitude of ACh stimulated contractions [3, 12]: 7.1 ± 0.7 mm | amplitude of ACh stimulated contractions [3, 13]: 7.0 ± 0.7 mm | amplitude of ACh stimulated contractions ([3]; O2: obestatin 2 μg/kg BW intra-stomach every 8 h, ACh^-9 (10^−9 M, cumulative)): 6.2 ± 0.3 mm | amplitude of atropine treated contractions ([3]; O2: obestatin 2 μg/kg BW intra-stomach every 8 h, atropine pretreatment (ATR^-6)): 1.26 ± 0.2 mm | amplitude of ACh stimulated contractions [3, 14]: 12.3 ± 1.1^a^b mm | amplitude of ACh stimulated contractions [3, 15]: 8.2 ± 0.9 mm | amplitude of ACh stimulated contractions [3, 16]: 6.3 ± 0.9 mm | amplitude of ACh stimulated contractions [3, 17]: 6.1 ± 0.9 mm | amplitude of ACh stimulated contractions [3, 18]: 6.0 ± 0.8 mm | amplitude of ACh stimulated contractions [3, 19]: 5.9 ± 0.9 mm | amplitude of ACh stimulated contractions [3, 20]: 15.1 ± 0.4^b mm | amplitude of ACh stimulated contractions [3, 21]: 9.6 ± 0.6 mm | amplitude of ACh stimulated contractions [3, 22]: 6.7 ± 0.8 mm | amplitude of ACh stimulated contractions [3, 23]: 5.9 ± 0.6 mm | amplitude of ACh stimulated contractions [3, 24]: 5.4 ± 0.4 mm | amplitude of ACh stimulated contractions [3, 25]: 5.3 ± 0.5 mm | amplitude of ACh stimulated contractions [4, 9]: 12.3 ± 1.0^a^b mm | amplitude of ACh stimulated contractions [4, 10]: 8.0 ± 0.9 mm | amplitude of ACh stimulated contractions [4, 11]: 6.3 ± 0.9^a^b mm | amplitude of ACh stimulated contractions [4, 12]: 6.1 ± 0.8 mm | amplitude of ACh stimulated contractions [4, 13]: 6.0 ± 0.7 mm | amplitude of atropine treated contractions [4, 26]: 0.97 ± 0.1^a^b mm | amplitude of ACh stimulated contractions [4, 14]: 12.5 ± 0.9^b mm | amplitude of ACh stimulated contractions [4, 15]: 10.1 ± 0.7 mm | amplitude of ACh stimulated contractions [4, 16]: 7.0 ± 0.9^b mm | amplitude of ACh stimulated contractions [4, 17]: 4.8 ± 0.9 mm | amplitude of ACh stimulated contractions [4, 18]: 4.6 ± 0.9 mm | amplitude of ACh stimulated contractions [4, 19]: 3.9 ± 0.8^a^b mm | amplitude of atropine treated contractions [4, 7]: 1.10 ± 0.2^b mm | amplitude of ACh stimulated contractions [4, 20]: 13.7 ± 0.8^b mm | amplitude of ACh stimulated contractions [4, 21]: 9.0 ± 0.8 mm | amplitude of ACh stimulated contractions [4, 22]: 7.3 ± 0.8^b mm | amplitude of ACh stimulated contractions [4, 23]: 6.8 ± 0.6 mm | amplitude of ACh stimulated contractions [4, 24]: 6.7 ± 0.7 mm | amplitude of ACh stimulated contractions [4, 25]: 6.6 ± 0.7^b mm | amplitude of atropine treated contractions [4, 8]: 1.20 ± 0.1^b mm | Thickness of muscularis layer [5, 26]: 106 ± 11^b μm | Thickness of muscularis layer [5, 7]: 107 ± 8^b μm | Thickness of muscularis layer [5, 8]: 89 ± 8^b μm | Thickness of muscularis layer [6, 26]: 88 ± 9^a μm | Thickness of muscularis layer [6, 7]: 63 ± 7^b μm
